Earlier results, collected in patent US20140212515A1, “COMPOSITION AND METHODS FOR OPTIMIZING HEALTH OF CANCER PATIENTS BY THE ADMINISTRATION OF SODIUM SELENITE AND VITAMIN K3” (priority 2013, published 2014).

Tested on: rat pancreatic cancer cells

SMILES: CC1=CC(=O)c2ccccc2C1=O [Menadione, 2-Methyl-1,4-Napthoquinone]
- proliferation of rat pancreatic cancer cells: inhibit the proliferation
